Results on three compounds are retold here after article PMC11247487, “Discovery of Dual MER/AXL Kinase Inhibitors as Bifunctional Small Molecules for Inhibiting Tumor Growth and Enhancing Tumor Immune Microenvironment” (Journal of Medicinal Chemistry, 2024).

The structures appear in SMILES notation. Where “and” joins values, the source holds several entries; their conditions need not be identical. Equal entries are not always repeated. Entries after “also recorded” stand apart in the source; their conditions may differ.

The subject of data set [1] is FLT3. The arrangement: method as in PMID 25068800, PMID 27649555. The following applies: cited from earlier work.
Data set [2] concerns the target DDR2 (Homo sapiens, UniProt Q16832). The experiment in a line: HotSpot kinase assay. The following applies: read-out: % Enzyme Activity.
Data set [3] addresses DDR1 (Homo sapiens, UniProt Q08345). The data set can be described thus: HotSpot kinase assay. The note with it: read-out: % Enzyme Activity.
Data set [4] deals with MC38 murine colon tumor. The data set can be described thus: MC38 syngeneic tumor model. In kind it is in vivo, mice. The note with it: MC38 tumor-bearing mice, 25-50 mg/kg orally, 3 weeks.
Data set [5] addresses TRKC (Homo sapiens, UniProt Q16288). The experiment in a line: HotSpot kinase assay. The following applies: read-out: % Enzyme Activity.
Data set [6] can be described thus: 14-day repeated dose toxicity study. The note with it: ICR mice.
Data set [7] addresses ROS1 (Homo sapiens, UniProt P08922). The experiment in a line: HotSpot kinase assay. The note with it: read-out: % Enzyme Activity.
The target of data set [8] is IRR (Homo sapiens, UniProt P14616). The data set can be described thus: HotSpot kinase assay. The following applies: read-out: % Enzyme Activity.
In data set [9] the test system is AXL phosphorylation in H1299 cells. The experiment in a line: Western blotting of AXL phosphorylation. The following applies: 1 h treatment.
Data set [10] can be described thus: In vivo pharmacokinetics study. The note with it: mice. On the procedure: The animal studies were performed according to NHRI institutional animal care and committee-approved procedures. Male ICR mice (25–35 g) were obtained from BioLASCO (Taiwan Co., Ltd., Ilan, Taiwan). […] All samples were analyzed for the parent drug by LC-MS/MS. Plasma concentration data were analyzed with a noncompartmental method.

Data set [11] relates to MER phosphorylation in G361 cells. The experiment in a line: Western blotting of MER phosphorylation. The following applies: 48 h treatment.
For data set [12], the target named is KIT (Homo sapiens, UniProt P10721). The data set can be described thus: HotSpot kinase assay. The note with it: read-out: % Enzyme Activity.
Data set [13] concerns the target FLT3 (Homo sapiens, UniProt P36888). The experiment in a line: HotSpot kinase assay. The note with it: read-out: % Enzyme Activity.
For data set [14], the target named is TRKB (Homo sapiens, UniProt Q16620). The data set can be described thus: HotSpot kinase assay. The note with it: read-out: % Enzyme Activity.
The test system of data set [15] is immune cells in tumor and spleen of MC38 tumor-bearing mice. The data set can be described thus: Immunophenotyping by flow cytometry. In kind it is in vivo. The note with it: 50 mg/kg QD, FOTO, 2 weeks. As for the experimental part:
Tumor and spleen tissues from the control and treated animals were harvested 2 h after the last dose (day 11). […] tissues were carefully removed from the tumors followed by digestion with 0.1% collagenase III in DMEM medium for 30 min at 37 °C with agitation every 10 min. The digestion was terminated by adding 10% FBS containing PBS. The single-cell suspension was filtered through a 40 μm filter after red blood cell lysis. Aliquots of the cell suspension were preincubated with the mouse Fc receptor blocker for 10 min before staining with appropriate antimouse antibody conjugate for Cd45, Cd3, Cd4, Cd8, Cd11b, Cd86, F4/80, AXL, and MER (all antibody conjugates from BioLegend) at 4 °C for 30 min followed by two washes in 1% BSA containing buffer and analyzed by flow cytometry to quantify the accumulation of infiltrating immune cells into the tumor. For analysis of Cd206, the cells were fixed using the Cyto X/Cytoperm kit (BD Biosciences) after surface marker staining and then stained with antimouse Cd206 antibody.

The nature of data set [16]: In vitro microsomal stability assay. In kind it is in vitro ADME. The note with it: 1 μM, mouse liver microsomes, percent remaining at 30 min. On the procedure:
All incubations were initiated with the addition of NADPH-generating system at 37 °C for 30 min. At 0 and the end of incubation, 100 μL of aliquots were taken from the incubation mixture and placed into centrifuge tubes containing 100 μL of ice-cold acetonitrile to terminate the metabolic reaction. The samples were vortexed and centrifuged, and then, the supernatant injected onto LC/MS. Percent of remaining of each compound was calculated by comparing peak areas at 30 min to that at the initiation of incubation.

Data set [17] deals with TRKA (Homo sapiens, UniProt P04629). The data set can be described thus: HotSpot kinase assay. The note with it: read-out: % Enzyme Activity.
Data set [18] concerns Ba/F3-MER cells. The experiment in a line: Cell viability assay (MTS). In kind it is cell-based. The note with it: 72 h.
The conditions of data set [19]: mouse, in vivo.
In data set [20] the target is T1, MER (Homo sapiens, UniProt Q12866).
T1 construct: A purified kinase (MER or AXL) was incubated with a compound or DMSO
T1 sequence (Q12866 21-999): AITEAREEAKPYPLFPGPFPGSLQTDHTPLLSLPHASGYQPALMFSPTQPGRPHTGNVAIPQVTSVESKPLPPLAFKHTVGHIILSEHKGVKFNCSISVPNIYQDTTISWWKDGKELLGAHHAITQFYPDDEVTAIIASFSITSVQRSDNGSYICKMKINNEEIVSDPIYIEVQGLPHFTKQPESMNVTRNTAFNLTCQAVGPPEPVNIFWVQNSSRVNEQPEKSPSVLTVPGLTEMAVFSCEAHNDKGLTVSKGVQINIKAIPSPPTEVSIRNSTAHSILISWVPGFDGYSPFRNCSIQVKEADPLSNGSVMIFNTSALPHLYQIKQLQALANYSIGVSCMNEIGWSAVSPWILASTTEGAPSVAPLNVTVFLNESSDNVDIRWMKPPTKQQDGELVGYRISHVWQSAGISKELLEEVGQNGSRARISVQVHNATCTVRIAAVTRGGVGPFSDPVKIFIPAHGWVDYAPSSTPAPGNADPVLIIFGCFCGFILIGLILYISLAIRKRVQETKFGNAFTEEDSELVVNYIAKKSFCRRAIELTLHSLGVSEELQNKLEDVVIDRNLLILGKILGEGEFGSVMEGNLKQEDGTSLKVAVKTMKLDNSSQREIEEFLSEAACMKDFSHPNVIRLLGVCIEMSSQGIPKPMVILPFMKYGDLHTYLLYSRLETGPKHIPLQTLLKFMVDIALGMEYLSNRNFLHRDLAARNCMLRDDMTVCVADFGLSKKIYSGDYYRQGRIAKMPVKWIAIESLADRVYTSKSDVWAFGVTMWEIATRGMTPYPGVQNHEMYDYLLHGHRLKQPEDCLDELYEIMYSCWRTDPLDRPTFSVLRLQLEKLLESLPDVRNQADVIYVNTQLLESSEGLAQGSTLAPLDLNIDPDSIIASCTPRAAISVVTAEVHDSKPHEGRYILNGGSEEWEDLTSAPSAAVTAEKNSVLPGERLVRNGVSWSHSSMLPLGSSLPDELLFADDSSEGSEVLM
The following applies: cited from earlier work.

Setting [21] is: male, ICR, mouse, plasma, iv 2 mg/kg, po 10 mg/kg.

By IC50 is commonly meant the midpoint of a concentration-inhibition curve. In the case of `CCCCNc1ncc2c(-c3ccc(CN4CCN(C)CC4)cc3)cn([C@H]3CC[C@H](O)CC3)c2n1` [Compound 1, UNC2025, reference compound], in [1], the IC50 was […].

Chain of TRKB (Q16620 32-822): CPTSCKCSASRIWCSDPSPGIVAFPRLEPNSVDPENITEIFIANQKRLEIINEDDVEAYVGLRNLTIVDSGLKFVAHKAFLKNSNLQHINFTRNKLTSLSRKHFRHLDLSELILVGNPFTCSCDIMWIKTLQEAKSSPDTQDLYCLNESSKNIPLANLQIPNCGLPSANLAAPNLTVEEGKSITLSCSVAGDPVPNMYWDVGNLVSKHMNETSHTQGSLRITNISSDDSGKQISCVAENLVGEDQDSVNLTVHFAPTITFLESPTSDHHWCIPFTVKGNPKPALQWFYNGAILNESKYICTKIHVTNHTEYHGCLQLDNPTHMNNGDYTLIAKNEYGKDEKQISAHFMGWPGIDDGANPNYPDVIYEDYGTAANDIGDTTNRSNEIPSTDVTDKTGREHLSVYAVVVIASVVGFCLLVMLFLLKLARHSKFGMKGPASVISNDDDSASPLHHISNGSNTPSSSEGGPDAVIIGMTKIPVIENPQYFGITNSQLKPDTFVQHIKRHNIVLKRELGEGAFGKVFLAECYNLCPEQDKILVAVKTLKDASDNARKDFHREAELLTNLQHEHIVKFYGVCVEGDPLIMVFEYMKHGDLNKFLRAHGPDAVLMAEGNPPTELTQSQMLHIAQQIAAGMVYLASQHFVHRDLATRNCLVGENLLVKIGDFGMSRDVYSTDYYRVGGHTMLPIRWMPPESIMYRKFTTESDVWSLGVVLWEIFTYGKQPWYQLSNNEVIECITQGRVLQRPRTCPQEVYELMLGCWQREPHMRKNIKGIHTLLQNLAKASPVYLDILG
Chain of ROS1 (P08922 28-2347): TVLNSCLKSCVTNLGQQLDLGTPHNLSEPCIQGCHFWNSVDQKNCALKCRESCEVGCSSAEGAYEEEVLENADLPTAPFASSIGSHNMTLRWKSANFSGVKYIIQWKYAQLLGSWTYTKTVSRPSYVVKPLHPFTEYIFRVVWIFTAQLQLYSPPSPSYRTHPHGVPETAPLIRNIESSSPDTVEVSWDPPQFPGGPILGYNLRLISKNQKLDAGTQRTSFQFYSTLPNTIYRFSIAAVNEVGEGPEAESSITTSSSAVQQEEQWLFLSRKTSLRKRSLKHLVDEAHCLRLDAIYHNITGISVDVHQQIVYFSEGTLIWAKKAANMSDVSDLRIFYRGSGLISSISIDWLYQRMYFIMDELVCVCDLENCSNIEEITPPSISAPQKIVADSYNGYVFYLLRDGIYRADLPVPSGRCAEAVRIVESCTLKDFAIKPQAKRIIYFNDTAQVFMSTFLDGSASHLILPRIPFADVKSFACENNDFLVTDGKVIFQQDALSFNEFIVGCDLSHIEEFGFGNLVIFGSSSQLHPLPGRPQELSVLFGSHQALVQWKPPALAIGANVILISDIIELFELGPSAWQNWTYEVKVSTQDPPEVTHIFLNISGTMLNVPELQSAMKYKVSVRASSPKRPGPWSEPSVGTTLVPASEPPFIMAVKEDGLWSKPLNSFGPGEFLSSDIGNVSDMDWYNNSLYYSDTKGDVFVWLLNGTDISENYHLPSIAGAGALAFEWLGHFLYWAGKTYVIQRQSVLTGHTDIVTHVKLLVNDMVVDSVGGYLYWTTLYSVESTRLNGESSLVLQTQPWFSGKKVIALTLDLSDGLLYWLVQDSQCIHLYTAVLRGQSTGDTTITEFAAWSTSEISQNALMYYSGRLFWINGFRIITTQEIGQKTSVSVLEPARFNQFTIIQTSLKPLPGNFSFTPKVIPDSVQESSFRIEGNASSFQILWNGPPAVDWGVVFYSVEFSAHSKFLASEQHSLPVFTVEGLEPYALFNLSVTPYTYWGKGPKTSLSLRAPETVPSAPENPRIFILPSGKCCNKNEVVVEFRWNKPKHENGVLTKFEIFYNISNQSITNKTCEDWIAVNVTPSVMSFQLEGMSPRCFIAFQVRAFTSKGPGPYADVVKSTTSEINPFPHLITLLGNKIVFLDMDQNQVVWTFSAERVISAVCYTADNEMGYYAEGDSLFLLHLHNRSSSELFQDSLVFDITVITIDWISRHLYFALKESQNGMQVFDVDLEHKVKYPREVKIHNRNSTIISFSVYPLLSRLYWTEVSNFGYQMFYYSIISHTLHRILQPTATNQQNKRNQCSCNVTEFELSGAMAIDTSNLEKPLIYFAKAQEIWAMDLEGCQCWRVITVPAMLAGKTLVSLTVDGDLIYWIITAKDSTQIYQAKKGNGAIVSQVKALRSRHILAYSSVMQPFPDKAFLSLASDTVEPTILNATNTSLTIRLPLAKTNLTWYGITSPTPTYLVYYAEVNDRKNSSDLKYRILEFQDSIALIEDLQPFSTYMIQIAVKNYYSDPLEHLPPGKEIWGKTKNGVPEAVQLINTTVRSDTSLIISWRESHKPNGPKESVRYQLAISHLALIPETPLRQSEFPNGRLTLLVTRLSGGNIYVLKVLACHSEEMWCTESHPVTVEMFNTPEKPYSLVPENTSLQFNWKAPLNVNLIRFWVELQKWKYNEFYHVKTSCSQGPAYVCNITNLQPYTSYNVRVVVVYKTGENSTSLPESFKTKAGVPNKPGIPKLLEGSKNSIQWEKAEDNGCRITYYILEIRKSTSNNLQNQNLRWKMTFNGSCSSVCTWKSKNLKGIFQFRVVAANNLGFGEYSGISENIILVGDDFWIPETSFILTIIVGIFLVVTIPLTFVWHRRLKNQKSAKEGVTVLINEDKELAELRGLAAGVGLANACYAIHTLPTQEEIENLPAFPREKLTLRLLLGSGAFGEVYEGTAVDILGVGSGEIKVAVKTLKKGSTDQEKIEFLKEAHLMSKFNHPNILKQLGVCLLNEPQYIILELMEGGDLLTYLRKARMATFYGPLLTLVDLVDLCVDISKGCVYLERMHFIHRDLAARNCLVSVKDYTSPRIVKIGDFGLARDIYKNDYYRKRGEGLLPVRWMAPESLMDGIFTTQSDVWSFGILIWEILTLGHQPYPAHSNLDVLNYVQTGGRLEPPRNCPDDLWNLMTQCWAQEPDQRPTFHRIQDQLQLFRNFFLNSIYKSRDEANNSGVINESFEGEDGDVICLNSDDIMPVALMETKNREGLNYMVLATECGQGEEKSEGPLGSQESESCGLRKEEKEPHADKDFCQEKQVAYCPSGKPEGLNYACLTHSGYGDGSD
Chain of DDR2 (Q16832 22-855): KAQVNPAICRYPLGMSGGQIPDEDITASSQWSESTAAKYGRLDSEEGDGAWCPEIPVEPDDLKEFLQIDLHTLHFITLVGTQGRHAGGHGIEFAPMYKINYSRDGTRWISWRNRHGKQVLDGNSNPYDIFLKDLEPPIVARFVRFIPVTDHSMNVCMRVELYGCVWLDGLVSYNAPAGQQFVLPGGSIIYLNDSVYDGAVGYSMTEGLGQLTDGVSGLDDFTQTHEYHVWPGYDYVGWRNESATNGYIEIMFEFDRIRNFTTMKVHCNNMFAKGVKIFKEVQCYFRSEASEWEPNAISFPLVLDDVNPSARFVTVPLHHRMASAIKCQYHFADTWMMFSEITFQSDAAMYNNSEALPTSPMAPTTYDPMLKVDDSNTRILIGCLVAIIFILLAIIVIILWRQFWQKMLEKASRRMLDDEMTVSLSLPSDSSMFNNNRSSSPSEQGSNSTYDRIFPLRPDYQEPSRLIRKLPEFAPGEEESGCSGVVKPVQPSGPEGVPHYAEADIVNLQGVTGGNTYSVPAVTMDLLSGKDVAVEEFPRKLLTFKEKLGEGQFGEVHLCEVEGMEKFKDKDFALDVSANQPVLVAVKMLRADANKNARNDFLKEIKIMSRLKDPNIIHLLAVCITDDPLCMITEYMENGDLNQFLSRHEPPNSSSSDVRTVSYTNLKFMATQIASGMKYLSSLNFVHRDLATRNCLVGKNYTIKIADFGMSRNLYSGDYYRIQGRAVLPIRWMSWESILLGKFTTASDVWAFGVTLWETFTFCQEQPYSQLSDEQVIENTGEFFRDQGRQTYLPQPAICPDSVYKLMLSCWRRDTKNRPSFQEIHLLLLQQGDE
Chain of TRKC (Q16288 32-839): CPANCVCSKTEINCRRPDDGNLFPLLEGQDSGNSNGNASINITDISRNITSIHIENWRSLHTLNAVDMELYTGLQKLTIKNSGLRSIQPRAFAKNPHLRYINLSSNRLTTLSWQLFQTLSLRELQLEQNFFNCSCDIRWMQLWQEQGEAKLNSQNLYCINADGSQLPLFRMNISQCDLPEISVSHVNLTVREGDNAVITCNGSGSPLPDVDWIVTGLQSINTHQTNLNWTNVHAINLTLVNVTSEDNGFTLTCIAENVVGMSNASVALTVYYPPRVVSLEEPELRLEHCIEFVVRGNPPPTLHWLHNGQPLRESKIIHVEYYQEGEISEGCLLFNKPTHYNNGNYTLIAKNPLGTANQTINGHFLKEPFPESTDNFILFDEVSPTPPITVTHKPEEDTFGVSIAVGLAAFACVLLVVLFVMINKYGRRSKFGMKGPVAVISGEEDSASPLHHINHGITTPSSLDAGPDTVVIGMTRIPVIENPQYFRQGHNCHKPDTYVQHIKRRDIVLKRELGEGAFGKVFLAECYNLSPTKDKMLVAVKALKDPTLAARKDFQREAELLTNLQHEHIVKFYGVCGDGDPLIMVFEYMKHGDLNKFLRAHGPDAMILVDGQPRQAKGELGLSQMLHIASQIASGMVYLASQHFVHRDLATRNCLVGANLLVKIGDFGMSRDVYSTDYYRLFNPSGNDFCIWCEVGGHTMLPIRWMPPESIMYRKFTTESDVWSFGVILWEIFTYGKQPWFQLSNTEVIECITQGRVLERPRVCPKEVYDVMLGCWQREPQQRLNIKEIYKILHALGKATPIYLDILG

As a reminder, the bioavailability is dose-corrected exposure relative to a reference, in per cent. A high value points to good availability. As usually defined, the Tmax is the time at which the peak concentration occurs. In the case of `CN(C)Cc1cccc(-c2c(-c3cnn(C)c3)oc3ncnc(Oc4ccc(NC(=O)c5cccn(-c6ccc(F)cc6)c5=O)cc4)c23)c1` [Compound 33, N-{4-[(5-{3-[(Dimethylamino)methyl]phenyl}-6-(1-methyl-1H-pyrazol-4-yl)furo[2,3-d]pyrimidin-4-yl)oxy]phenyl}-1-(4-fluorophenyl)-2-oxo-1,2-dihydropyridine-3-carboxamide], the remaining activity at 1 µM in data set [2] worked out at 4.45%. Moreover, the remaining activity at 1 µM in data set [3] is 9.39%. In addition, in data set [4], the “body weight during treatment” value is on record as “well-tolerated without significant body weight loss”. In addition, the remaining activity at 1 µM in data set [5] was 2.26%. Moreover, in [6], the CBC result is listed as “No significant”; the body weight result is on record as “No effect on body”; the “kidney serum biomarker CRE” value is “Mild effect on CRE; also recorded: mild decline in kidney serum biomarker CRE at 30 and 100 mpk”; the organ weight entry was “No significant”. Moreover, the remaining activity at 1 µM in [7] worked out at 2.88%. In data set [8], the remaining activity at 1 µM turned out to be 1.79%. In data set [9], the “Gas6-mediated AXL phosphorylation” value is “effectively blocked”. Moreover, in data set [10] (setting [21]), the bioavailability is > 20% and the bioavailability at 24 h turned out to be 54.6%. Besides, in data set [10] (male, ICR, mouse, plasma, iv 2 mg/kg, read-out: iv CL), the clearance was determined as 12.6 mL/min/kg. Moreover, the half-life in [10] (male, ICR, mouse, plasma, iv 2 mg/kg, read-out: iv T1/2 (converted)) was 4.5 h. Besides, in [10] (male, ICR, mouse, plasma, iv 2 mg/kg, read-out: iv Vss), the Vd was determined as 5.2 L/kg. The Tmax at 24 h in data set [10] (male, ICR, mouse, plasma, po 10 mg/kg) is 5.3 h. For the same compound, in data set [10] (male, ICR, mouse, plasma, po 10 mg/kg, read-out: po T1/2 (converted)), the half-life at 24 h was 5.2 h. In addition, the “iv DNAUC(0–inf)” value in [10] (iv 2 mg/kg, dose-normalized) is on record as 1,573.0 ng × hr/mL. Moreover, in data set [10] (po 10 mg/kg, dose-normalized), the “po DNAUC(0–inf)” value came out at 858.8 ng·h/mL and the “po DNCmax” value came out at 95.0 ng/mL. Besides, the “MER phosphorylation induced by MAB8912” value in [11] is “effectively blocked MER phosphorylation”. Besides, the remaining activity at 1 µM in data set [12] was 1.05%. For the same compound, in data set [13], the remaining activity at 1 µM is -0.03%. Moreover, the remaining activity at 1 µM in data set [14] turned out to be 6.07%. In data set [15], the “increase in intratumoral M1-like macrophages” value is 2 fold, the “increase in percentage of Cd3^+ pan-T cells in spleen” value is recorded as 2 fold, the “increase in percentage of Cd4^+ helper T cells in spleen” value is 2 fold and the “increase in percentage of Cd8^+ cytotoxic T cells in spleen” value was determined as 6 fold. Moreover, in data set [16], the “Microsomal stability @ 30 min” value was found to be 79%. In addition, the remaining activity at 1 µM in data set [17] came to 3.35%. In addition, the IC50 in data set [18] is 5 nM and 4.8 nM. Further, the “toxicity, 14-day repeated dose” value in [19] is given as “no significant toxicity at any dose level”.

For the compound `CCC[C@@H](C)Nc1ncc2c(C3CCN(C(=O)c4cc(C)nc(C)c4)CC3)cn([C@H]3CC[C@H](O)CC3)c2n1` [Compound 2, UNC5293], in [20], the IC50 was 0.9 nM.
